Measured values as given in patent US8822505B2, “Azetidine derivatives” (Hoffmann-La Roche Inc., priority 2012, dated 2014).
Where a name gives a salt, the structure may show the parent alone.

Assays:
human Cat L = human Cat L (Homo sapiens (Human), UniProt P07711); assay: Cathepsin enzyme inhibition assay (human Cat L); format: biochemical; conditions: enzyme 1 nM, substrate Z-Val-Val-Arg-AMC 20 μM
Experimental: (§1) Cathepsin Enzyme Inhibition Assay
(§2) Enzyme activity is measured by observing the increase in fluorescence intensity caused by cleavage of a peptide substrate containing a fluorophore whose emission is quenched in the intact peptide.
(§3) Assay buffer: 100 mM potassium phosphate pH 6.5, EDTA-Na 5 mM, Triton X-100 0.001%, DTT 5 mM.
(§4) Enzymes (all at 1 nM): human and mouse Cathepsin S, Cat K, Cat B, Cat L.
(§5) Substrate (20 μM): Z-Val-Val-Arg-AMC, except for Cat K which uses Z-Leu-Arg-AMC (both from Bachem).
Excitation 360 nm, Emission 465 nm.
Enzyme is added to the substance dilutions in 96-well microtitre plates and the reaction is started with substrate. Fluorescence emission is measured over 20 minutes, during which time a linear increase is observed in the absence of inhibitor. IC50 are calculated by standard methods.
Inhibition of human Cat S, mouse Cat S, human Cat K, human Cat B, human Cat L and mouse Cat L have been measured separately. The results obtained for human Cat S and L for representative compounds of the invention are expressed in the following table in μM.

human Cat S = human Cat S (Homo sapiens (Human), UniProt P25774); assay: Cathepsin enzyme inhibition assay (human Cat S); format: biochemical; conditions: enzyme 1 nM, substrate Z-Val-Val-Arg-AMC 20 μM
Sequence of human Cat S (P25774 115-331): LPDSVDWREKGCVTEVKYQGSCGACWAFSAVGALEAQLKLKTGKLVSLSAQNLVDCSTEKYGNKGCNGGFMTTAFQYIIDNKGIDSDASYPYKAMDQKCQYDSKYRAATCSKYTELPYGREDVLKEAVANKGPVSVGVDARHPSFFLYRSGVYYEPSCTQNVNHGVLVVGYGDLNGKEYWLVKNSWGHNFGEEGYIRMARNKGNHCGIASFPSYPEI
Experimental: as §1, §2, §3, §4, §5
Enzyme is added to the substance dilutions in 96-well microtitre plates and the reaction is started with substrate. […] IC50 are calculated by standard methods.
Inhibition of human Cat S, mouse Cat S, human Cat K, human Cat B, human Cat L and mouse Cat L have been measured separately.

Sequence of human Cat L (P07711 114-333): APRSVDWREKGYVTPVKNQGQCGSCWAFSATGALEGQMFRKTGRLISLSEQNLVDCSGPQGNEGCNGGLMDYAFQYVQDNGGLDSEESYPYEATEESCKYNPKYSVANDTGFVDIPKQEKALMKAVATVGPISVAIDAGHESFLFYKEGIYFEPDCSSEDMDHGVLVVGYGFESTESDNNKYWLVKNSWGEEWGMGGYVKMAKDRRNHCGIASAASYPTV

SMILES | IC50 (human Cat L; pH 6.5) [nM] | IC50 (human Cat S; pH 6.5) [nM] | IC50 (human Cat L; pH 6.5, hydrochloride) [nM] | IC50 (human Cat S; pH 6.5, hydrochloride) [nM]
N#CC1(NC(=O)[C@@H]2C[C@@H](S(=O)(=O)c3ccccc3Cl)CN2C(=O)C2(c3ncc(Br)cc3F)CNC2)CC1 [Example 13, (2S,4R)-1-[3-(5-Bromo-3-fluoro-pyridin-2-yl)-azetidine-3-carbonyl]-4-(2-chloro-benzenesulfonyl)-pyrrolidine-2-carboxylic acid (1-cyano-cyclopropyl)-amide] | 4.6 | 1.09 |  | 
CCN1CC(C(=O)N2C[C@H](S(=O)(=O)c3ccccc3Cl)C[C@H]2C(=O)NC2(C#N)CC2)(c2ncc(Br)cc2F)C1 [Example 15, (2S,4R)-1-[3-(5-Bromo-3-fluoro-pyridin-2-yl)-1-ethyl-azetidine-3-carbonyl]-4-(2-chloro-benzenesulfonyl)-pyrrolidine-2-carboxylic acid (1-cyano-cyclopropyl)-amide] | 20.1 | 0.721 |  | 
CN1CC(C(=O)N2C[C@H](S(=O)(=O)c3ccccc3Cl)C[C@H]2C(=O)NC2(C#N)CC2)(c2ncc(Cl)cc2F)C1 [Example 16, (2S,4R)-4-(2-Chloro-benzenesulfonyl)-1-[3-(5-chloro-3-fluoro-pyridin-2-yl)-1-methyl-azetidine-3-carbonyl]-pyrrolidine-2-carboxylic acid (1-cyano-cyclopropyl)-amide] | 39.8 | 0.525 |  | 
N#CC1(NC(=O)[C@@H]2C[C@@H](S(=O)(=O)c3ccc(OCC(F)(F)F)cc3Cl)CN2C(=O)C2(c3ncc(Br)cc3F)CNC2)CC1 [Example 19, (2S,4R)-1-(3-(5-Bromo-3-fluoropyridin-2-yl)azetidine-3-carbonyl)-4-(2-chloro-4-(2,2,2-trifluoroethoxy)phenylsulfonyl)-N-(1-cyanocyclopropyl)pyrrolidine-2-carboxamide] | 33.8 | 1.67 |  | 
N#CC1(NC(=O)[C@@H]2C[C@@H](S(=O)(=O)c3ccc(OCC(F)(F)F)cc3Cl)CN2C(=O)C2(c3ncc(Cl)cc3F)CNC2)CC1 [Example 20, (2S,4R)-1-(3-(5-Chloro-3-fluoropyridin-2-yl)azetidine-3-carbonyl)-4-(2-chloro-4-(2,2,2-trifluoroethoxy)phenylsulfonyl)-N-(1-cyanocyclopropyl)pyrrolidine-2-carboxamide] | 78.2 | 2.92 |  | 
CC(C)(C)OC(=O)N1CCC1(C(=O)N1C[C@H](S(=O)(=O)c2ccc(F)cc2Cl)C[C@H]1C(=O)NC1(C#N)CC1)c1ncc(Br)cc1F (stereo partly drawn) [Example 22, 2-(5-Bromo-3-fluoro-pyridin-2-yl)-2-[(2S,4R)-4-(2-chloro-4-fluoro-benzenesulfonyl)-2-(1-cyano-cyclopropylcarbamoyl)-pyrrolidine-1-carbonyl]-azetidine-1-carboxylic acid tert-butyl ester] | 1020 | 1.26 |  | 
C[C@H](Oc1ccc(S(=O)(=O)[C@@H]2C[C@@H](C(=O)NC3(C#N)CC3)N(C(=O)C3(c4ncc(Br)cc4F)CCN3C(=O)OC(C)(C)C)C2)c(Cl)c1)C(F)(F)F (stereo partly drawn) [Example 30, 2-(5-Bromo-3-fluoro-pyridin-2-yl)-2-[(2S,4R)-4-[2-chloro-4-((S)-2,2,2-trifluoro-1-methyl-ethoxy)-benzenesulfonyl]-2-(1-cyano-cyclopropylcarbamoyl)-pyrrolidine-1-carbonyl]-azetidine-1-carboxylic acid tert-butyl ester] | 1060 | 2.22 |  | 
N#CC1(NC(=O)[C@@H]2C[C@@H](S(=O)(=O)c3ccc(F)cc3Cl)CN2C(=O)C2(c3ncc(Cl)cc3F)CCN2)CC1 (stereo partly drawn) [Example 31, (2S,4R)-4-(2-Chloro-4-fluoro-benzenesulfonyl)-1-[2-(5-chloro-3-fluoro-pyridin-2-yl)-azetidine-2-carbonyl]-pyrrolidine-2-carboxylic acid (1-cyano-cyclopropyl)-amide; hydrochloride] |  |  | 81.6 | 1.57
C[C@H](Oc1ccc(S(=O)(=O)[C@@H]2C[C@@H](C(=O)NC3(C#N)CC3)N(C(=O)C3(c4ncc(Br)cc4F)CN(C(=O)OC(C)(C)C)C3)C2)c(Cl)c1)C(F)(F)F [Example 33, 3-(5-Bromo-3-fluoro-pyridin-2-yl)-3-[(2S,4R)-4-[2-chloro-4-((S)-2,2,2-trifluoro-1-methyl-ethoxy)-benzenesulfonyl]-2-(1-cyano-cyclopropylcarbamoyl)-pyrrolidine-1-carbonyl]-azetidine-1-carboxylic acid tert-butyl ester] | 89.5 | 3.54 |  | 
C[C@H](Oc1ccc(S(=O)(=O)[C@@H]2C[C@@H](C(=O)NC3(C#N)CC3)N(C(=O)C3(c4ncc(Br)cc4F)CNC3)C2)c(Cl)c1)C(F)(F)F [Example 34, (2S,4R)-1-[3-(5-Bromo-3-fluoro-pyridin-2-yl)-azetidine-3-carbonyl]-4-[2-chloro-4-((S)-2,2,2-trifluoro-1-methyl-ethoxy)-benzenesulfonyl]-pyrrolidine-2-carboxylic acid (1-cyano-cyclopropyl)-amide] | 14.2 | 3.48 |  | 

More lines, now with the values ahead:

IC50 (human Cat L; pH 6.5) [nM] | IC50 (human Cat S; pH 6.5) [nM] | IC50 (human Cat L; pH 6.5, hydrochloride) [nM] | IC50 (human Cat S; pH 6.5, hydrochloride) [nM] | SMILES
1340 | 1.04 |  |  | CC(C)(C)OC(=O)N1CCC1(C(=O)N1C[C@H](S(=O)(=O)c2ccc(F)cc2Cl)C[C@H]1C(=O)NC1(C#N)CC1)c1ncc(Cl)cc1F (stereo partly drawn) [Example 21, 2-[(2S,4R)-4-(2-Chloro-4-fluoro-benzenesulfonyl)-2-(1-cyano-cyclopropylcarbamoyl)-pyrrolidine-1-carbonyl]-2-(5-chloro-3-fluoro-pyridin-2-yl)-azetidine-1-carboxylic acid tert-butyl ester]
2010 | 0.377 |  |  | CC(C)(C)OC(=O)N1CCC1(C(=O)N1C[C@H](S(=O)(=O)c2ccc(F)cc2Cl)C[C@H]1C(=O)NC1(C#N)CC1)c1ncc(Cl)cc1F (stereo partly drawn) [Example 23, 2-[(2S,4R)-4-(2-Chloro-4-fluoro-benzenesulfonyl)-2-(1-cyano-cyclopropylcarbamoyl)-pyrrolidine-1-carbonyl]-2-(5-chloro-3-fluoro-pyridin-2-yl)-azetidine-1-carboxylic acid tert-butyl ester]
922 | 4.56 |  |  | CC(C)(C)OC(=O)N1CCC1(C(=O)N1C[C@H](S(=O)(=O)c2ccc(F)cc2Cl)C[C@H]1C(=O)NC1(C#N)CC1)c1ncc(Cl)cc1F (stereo partly drawn) [Example 24, 2-[(2S,4R)-4-(2-Chloro-4-fluoro-benzenesulfonyl)-2-(1-cyano-cyclopropylcarbamoyl)-pyrrolidine-1-carbonyl]-2-(5-chloro-3-fluoro-pyridin-2-yl)-azetidine-1-carboxylic acid tert-butyl ester]
2910 | 0.492 |  |  | CC(C)(C)OC(=O)N1CCC1(C(=O)N1C[C@H](S(=O)(=O)c2ccc(F)cc2Cl)C[C@H]1C(=O)NC1(C#N)CC1)c1ncc(Br)cc1F (stereo partly drawn) [Example 25, 2-(5-Bromo-3-fluoro-pyridin-2-yl)-2-[(2S,4R)-4-(2-chloro-4-fluoro-benzenesulfonyl)-2-(1-cyano-cyclopropylcarbamoyl)-pyrrolidine-1-carbonyl]-azetidine-1-carboxylic acid tert-butyl ester]
471 | 4.45 |  |  | CC(C)(C)OC(=O)N1CCC1(C(=O)N1C[C@H](S(=O)(=O)c2ccc(F)cc2Cl)C[C@H]1C(=O)NC1(C#N)CC1)c1ncc(Br)cc1F (stereo partly drawn) [Example 26, 2-(5-Bromo-3-fluoro-pyridin-2-yl)-2-[(2S,4R)-4-(2-chloro-4-fluoro-benzenesulfonyl)-2-(1-cyano-cyclopropylcarbamoyl)-pyrrolidine-1-carbonyl]-azetidine-1-carboxylic acid tert-butyl ester]
